Patent US8778984B2, “Aldosterone synthase inhibitor” (Eli Lilly and Company, priority 2011, dated 2014)

Columns and labels:
human cyp11B2 = target: T1, human cyp11B2 (Homo sapiens, UniProt P19099); assay: Aldosterone Synthase Inhibitor Assay (V79-hcyp11B2 cells, aldosterone by LC-MS); format: cell-based; settings: aldosterone production from 1 μM DOC, 24 hours incubation, geometric means, separate experiments
T1 construct: expressed in transfected cells
T1 sequence (P19099 25-503): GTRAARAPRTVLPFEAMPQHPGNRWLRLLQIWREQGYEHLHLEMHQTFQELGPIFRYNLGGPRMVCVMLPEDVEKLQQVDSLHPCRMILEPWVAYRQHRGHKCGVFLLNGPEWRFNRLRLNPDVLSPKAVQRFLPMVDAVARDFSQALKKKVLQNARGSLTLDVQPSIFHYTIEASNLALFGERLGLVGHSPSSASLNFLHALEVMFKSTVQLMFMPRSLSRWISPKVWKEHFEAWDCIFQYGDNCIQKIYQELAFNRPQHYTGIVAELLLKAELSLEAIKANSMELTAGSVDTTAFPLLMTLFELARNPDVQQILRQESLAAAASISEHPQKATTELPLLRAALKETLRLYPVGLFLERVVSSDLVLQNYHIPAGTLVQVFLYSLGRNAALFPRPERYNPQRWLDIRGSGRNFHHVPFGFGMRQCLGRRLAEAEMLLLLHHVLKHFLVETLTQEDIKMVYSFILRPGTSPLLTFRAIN
Experimental: Chinese hamster fibroblast cells (V79, ATCC™) constitutively expressing human cyp11B2 are established by transfection with a mammalian expression vector harboring the human cyp11B2 cDNA under CMV promoter and a neomycin antibiotic resistant gene for selection in mammalian cells. V79 cells are transfected in T225 cm^2 flasks with the lipofectamine transfection reagent and the human cyp11B2 cDNA. Positive clones are selected with the selection antibiotic geneticin at 1 mg/mL.
Aldosterone production from transfected cells is initiated by the addition of 1 μM DOC in the medium. After 24 hours incubation, 100 μL cell culture medium is collected and aldosterone concentration in the medium is determined using a liquid chromatography-mass spectrometry (LC-MS) method. […] The wells are then extracted 3× with EtOAc (150 μl) using the FX, combining the organic layers in a new 96-well plate. The solvent is dried in a GeneVac HT-4 or under nitrogen. […] A 25 μl aliquot of the sample is injected and a gradient from 20-100% ACN+0.1% formic acid (FA) in 1 min is initiated. Aldosterone elutes at 0.7 min. Starting conditions are held for 1 minute to re-equilibrate the column. An ABI 4000 tandem mass spectrometer is used for MS/MS analysis in the negative ion mode. […] The area under the peak from each transition is added together to comprise the signal from aldosterone and IS, respectively. […] The detection limit for aldosterone is […].
DOC and various concentrations of test compounds in 1:3 dilution increments are added to the cell culture medium. After 24 hours incubation, 100 μl of cell medium are collected and aldosterone concentration determined as described above. Data are fit to a 4 parameter-fit logistics curve to determine IC50 values.

[1] = system: aldosterone production in rats; assay: Inhibition of Aldosterone Synthase in Rats (rat sodium-deficiency diet model); format: in vivo; settings: Example 1 10.0 mg/kg, Example 49 30.0 mg/kg, Fadrozole 1.0 mg/kg
Experimental: The effect of compounds on aldosterone production in rats is assessed using the rat sodium-deficiency diet model. […] At 3 hours post dose rats are bled (˜0.5 mL) from the ocular orbit under isoflurane anesthesia. At 6 hours post-dose the rats are euthanized with CO2 and bled by cardiac puncture. Blood samples are clotted at least 30 minutes and serum is prepared and stored at approximately −80° C. until assayed. Aldosterone, steroids, and compound exposure are analyzed by mass spectroscopy.

[2] = system: estradiol production from H295R cells; assay: cells; format: cell-based, human; settings: Homo sapiens, NCI-H295R, 48 h, read-out: Estradiol IC50 (μM)
Experimental: (§1) The human adrenocarcinoma cell line H295R is used to monitor the production of testosterone and estradiol in vitro. […] Various concentrations of test compounds in 1:3 dilution increments are added to the cell culture medium. After incubation for 48 hours, 100 μl culture medium is collected and d5-estradiol and d3-testosterone are added as ISs for estradiol and testosterone respectively.
(§2) An equal volume of sodium carbonate/sodium bicarbonate buffer (0.5 mol/L, pH 9.4) is added to the samples followed by freshly prepared dansyl chloride solution (50 μl, 20 mg/mL). Samples are mixed and incubated for 60 min at 60° C. The samples are then extracted 3× with EtOAc ([…]) using the FX, combining the organic layers in a new deep-well 96-well plate. The solvent is then dried in a GeneVac HT-4 or under nitrogen. The FX is used to reconstitute the samples in 50% MeOH/water ([…]) and the plates are heat-sealed.
(§3) A 40 μl aliquot of the sample is injected and a gradient from 20-100% MeOH in 0.95 min is initiated. An ABI QTRAP 4000 tandem mass spectrometer is used for MS/MS analysis in the positive ion mode. […] These peaks are separately integrated to give the peak areas. The area ratios of testosterone/IS and estradiol/IS are used to determine testosterone and estradiol concentrations by comparison to their respective standard curves. The detection limits for testosterone and estradiol are 0.1 ng/mL and 0.01 ng/mL respectively.

[3] = system: testosterone production from H295R cells; assay: cells; format: cell-based, human; settings: Homo sapiens, NCI-H295R, 48 h, read-out: Testosterone IC50 (μM)
Experimental: as §1, §2, §3

For `Cc1ccc(C2CCCc3n[nH]cc32)cc1` (single isomer, unassigned; isomer 2) [Example 54, 4-(p-Tolyl)-4,5,6,7-tetrahydro-2H-indazole-isomer 2], which IC50 (human cyp11B2) is on record?
Its IC50 is 154 nM.

What does the source list for `N#Cc1ccc(C2CCCc3cncn32)cc1` (stereo not drawn) [Fadrozole, fadrozole, reference compound]?
% Inhibition 3 hrs ([1]; inhibition of aldosterone vs vehicle, 3 hrs post oral dose): 64.4%; % Inhibition 6 hrs ([1]; inhibition of aldosterone vs vehicle, 6 hrs post oral dose): 55.2%; Aldosterone (pg/mL) 3 hrs ([1]; serum, 3 hrs post oral dose, rat Na-deficient diet model): 669.8 pg/mL; Aldosterone (pg/mL) 6 hrs ([1]; serum, 6 hrs post oral dose, rat Na-deficient diet model): 1144.2 pg/mL

`N#Cc1ccc(C2CCCc3[nH]ncc32)cc1F` (racemic) [Example 59, (+/−)-2-Fluoro-4-(4,5,6,7-tetrahydro-1H-indazol-4-yl)benzonitrile] was tested. Which IC50 (human cyp11B2) did it give?
The IC50 was 5 nM.

Which results are given for `N#Cc1ccc([C@H]2CCc3cncn32)c(F)c1` [Novartis LCI699, reference compound]?
IC50 [2]: 0.123 µM; IC50 [3]: 5.01 µM

How did the IC50 (human cyp11B2) turn out when `FC(F)(F)c1ccc(C2CCc3[nH]ncc32)cc1` (racemic) [Example 18, (+/−)-4-(4-Trifluoro-methylphenyl)-1,4,5,6-tetrahydrocyclopenta[c] pyrazole] was run?
Its IC50 is 157 nM.
